Patent US12527739B2 (Alcon Inc., priority 2022, dated 2026)

Tests used:
M3 muscarinic receptor = M3 muscarinic receptor (Homo sapiens, UniProt P20309); experiment: Muscarinic receptor radioligand displacement binding, M3
M5 muscarinic receptor = target: T1, M5 muscarinic receptor (Homo sapiens, UniProt P08912); experiment: Muscarinic receptor radioligand displacement binding, M5
T1 sequence (P08912 1-532): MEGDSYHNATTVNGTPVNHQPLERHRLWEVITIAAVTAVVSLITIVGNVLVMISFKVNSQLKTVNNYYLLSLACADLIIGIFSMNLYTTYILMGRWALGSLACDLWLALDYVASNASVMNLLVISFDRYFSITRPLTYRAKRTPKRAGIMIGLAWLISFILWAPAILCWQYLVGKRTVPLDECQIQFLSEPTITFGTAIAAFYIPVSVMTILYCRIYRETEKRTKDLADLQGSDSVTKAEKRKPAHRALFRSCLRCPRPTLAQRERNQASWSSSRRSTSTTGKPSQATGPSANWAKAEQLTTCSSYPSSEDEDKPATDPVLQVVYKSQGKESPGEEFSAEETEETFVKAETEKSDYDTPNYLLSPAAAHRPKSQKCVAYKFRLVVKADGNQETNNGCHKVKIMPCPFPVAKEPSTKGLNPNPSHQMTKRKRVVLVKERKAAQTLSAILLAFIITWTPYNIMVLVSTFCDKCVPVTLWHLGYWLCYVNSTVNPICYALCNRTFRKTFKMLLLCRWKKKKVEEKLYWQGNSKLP

M2 muscarinic receptor = target: T2, M2 muscarinic receptor (Homo sapiens, UniProt P08172); experiment: Muscarinic receptor radioligand displacement binding, M2
T2 sequence (P08172 1-466): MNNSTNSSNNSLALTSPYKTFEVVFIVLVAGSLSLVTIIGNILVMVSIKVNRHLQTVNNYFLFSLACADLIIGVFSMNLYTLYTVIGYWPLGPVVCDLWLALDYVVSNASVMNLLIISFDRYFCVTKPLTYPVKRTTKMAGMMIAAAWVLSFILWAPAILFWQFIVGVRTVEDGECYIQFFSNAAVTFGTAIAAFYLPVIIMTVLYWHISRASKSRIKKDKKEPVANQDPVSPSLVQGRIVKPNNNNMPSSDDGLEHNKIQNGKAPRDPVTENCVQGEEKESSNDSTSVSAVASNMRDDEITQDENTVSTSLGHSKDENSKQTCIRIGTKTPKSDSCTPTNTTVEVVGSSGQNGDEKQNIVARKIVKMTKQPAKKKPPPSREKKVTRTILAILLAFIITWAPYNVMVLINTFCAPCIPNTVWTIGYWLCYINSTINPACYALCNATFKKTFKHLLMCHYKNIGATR

Measured: binding to the receptor (in words)

M3 muscarinic receptor, sequence (P20309 whole entry): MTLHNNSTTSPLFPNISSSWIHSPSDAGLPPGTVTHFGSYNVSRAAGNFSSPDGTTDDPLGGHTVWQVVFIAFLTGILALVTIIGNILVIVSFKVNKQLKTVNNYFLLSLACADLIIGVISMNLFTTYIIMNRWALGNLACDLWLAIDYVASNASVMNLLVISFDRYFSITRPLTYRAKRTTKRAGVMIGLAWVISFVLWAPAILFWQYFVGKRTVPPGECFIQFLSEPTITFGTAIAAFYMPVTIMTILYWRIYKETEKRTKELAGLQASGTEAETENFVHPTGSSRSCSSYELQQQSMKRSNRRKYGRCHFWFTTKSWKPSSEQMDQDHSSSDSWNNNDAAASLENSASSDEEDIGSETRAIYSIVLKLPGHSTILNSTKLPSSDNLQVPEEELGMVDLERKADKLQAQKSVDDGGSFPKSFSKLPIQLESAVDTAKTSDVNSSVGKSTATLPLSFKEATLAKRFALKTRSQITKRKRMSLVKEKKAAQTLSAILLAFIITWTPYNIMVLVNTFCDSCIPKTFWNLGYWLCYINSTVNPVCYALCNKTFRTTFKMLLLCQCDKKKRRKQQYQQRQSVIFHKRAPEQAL

CN1C2CCC1CC(OC(=O)C(CO)(Cc1ccccc1)c1ccccc1)C2 (racemic) [Benzyl Atropine, benzyl atropine]
not to bind at all: all assays above
